In patent EP4603105A1, “PHARMACEUTICAL COMPOSITION CONTAINING CYCLIC COMPOUND HAVING SELECTIVE KRAS INHIBITORY EFFECT AGAINST HRAS AND NRAS” (CHUGAI SEIYAKU KABUSHIKI KAISHA, priority 2022, dated 2024):
*1 amine or outer side, *2 acyl side, *3 side chain or, on linkers, in order; H or OH if unused. Where a SMILES comes first, the peptide text is derived from it. Bridges are numbered along the chain shown (N, C = ends). [ ]: non-standard residue; d: D form. The star is where a group is joined. hPhe(3,5-F2-4-CF3) = N[C@@H](CCc1cc(F)c(C(F)(F)F)c(F)c1)C(=O)O; X38 = CC(C)CCN([C@@H](Cc1ccc(C(F)(F)F)cc1)C(=O)[*:2])[*:1]; hPhe(3-Cl-4-CF3) = N[C@@H](CCc1ccc(C(F)(F)F)c(Cl)c1)C(=O)O; NPrPhe(4-CF3) = CCCN[C@@H](Cc1ccc(C(F)(F)F)cc1)C(=O)O; NEtAsp = CCN([C@@H](CC(=O)[*:3])C(=O)[*:2])[*:1]; NMePhe(4-Me) = CN[C@@H](Cc1ccc(C)cc1)C(=O)O; NMeGly(cPent) = CN[C@H](C(=O)O)C1CCCC1; Hyp = O=C(O)[C@@H]1C[C@@H](O)CN1; NMeD = CN[C@@H](CC(=O)O)C(=O)O; NMeL = CN[C@@H](CC(C)C)C(=O)O; Pip = O=C(O)[C@@H]1CCCCN1; αMeS = C[C@](N)(CO)C(=O)O; Morpholide = C1CN(*)CCO1; Ac5c = NC1(C(=O)O)CCCC1; Aze = O=C(O)[C@@H]1CCN1; Ac4c = NC1(C(=O)O)CCC1; NPrGly = CCCNCC(=O)O; Sar = CNCC(=O)O

How the values were obtained:
[1] = test system: human lung cancer strain NCI-H441; type: cell-based
How it was run: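 Proliferation was scored by […] measured after the reagent was added to cultures kept at 37°C in 5% carbon dioxide.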

[2] = molecular target: GDP-bound NRAS wild-type protein (Homo sapiens, UniProt P01111); experiment: Binding to NRAS by surface plasmon resonance (SPR), KD and KD ratio to KRAS
How it was run: (§1)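 Single-cycle kinetics on GDP-loaded biotin-Avi RAS captured to ~100–300 RU; 75 s ascending injections, 100 µL/min, 30°C. HBS pH 7.4 + 10 mM MgCl2/10 µM GDP/4% DMSO. 1:1 fit, KD.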

[3] = molecular target: HRAS wild-type protein (Homo sapiens, UniProt P01112); experiment: Binding to HRAS by surface plasmon resonance (SPR), KD and KD ratio to KRAS
How it was run: as §1

[4] = ratio of KD for GDP-bound NRAS wild-type protein to KD for KRAS
[5] = ratio of KD for HRAS wild-type protein to KD for KRAS
[6] = ratio of the KD value with respect to GDP-bound NRAS wild-type protein to the KD value with respect to KRAS
[7] = ratio of the KD value with respect to HRAS wild-type protein to the KD value with respect to KRAS
[8] = ratio of KD value for GDP-bound NRAS wild-type protein to KD value for KRAS (SPR)
[9] = ratio of KD value for HRAS wild-type protein to KD value for KRAS (SPR)

HRAS wild-type protein, sequence (P01112 whole entry): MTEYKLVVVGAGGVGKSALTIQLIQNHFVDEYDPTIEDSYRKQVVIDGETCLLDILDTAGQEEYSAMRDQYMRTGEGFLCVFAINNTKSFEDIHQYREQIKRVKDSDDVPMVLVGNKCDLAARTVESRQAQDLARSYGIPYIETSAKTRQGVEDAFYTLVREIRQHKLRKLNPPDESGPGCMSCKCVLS
GDP-bound NRAS wild-type protein, sequence (P01111 whole entry): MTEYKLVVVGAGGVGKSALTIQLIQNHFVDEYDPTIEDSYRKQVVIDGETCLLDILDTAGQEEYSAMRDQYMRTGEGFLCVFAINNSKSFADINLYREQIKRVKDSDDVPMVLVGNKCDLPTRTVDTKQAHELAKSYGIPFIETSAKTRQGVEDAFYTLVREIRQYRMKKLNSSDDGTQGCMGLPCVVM

Structure (SMILES) | IC50 [1] [nM] | NRAS /KRAS [2, 4] | HRAS /KRAS [3, 5] | NRAS /KRAS [2, 6] | HRAS /KRAS [3, 7] | NRAS /KRAS [2, 8] | HRAS /KRAS [3, 9]
CCCN1C(=O)CN(C)C(=O)CN(C)C(=O)[C@H]([C@@H](C)CC)NC(=O)[C@H](CC(C)C)N(C)C(=O)C[C@@H](C(=O)N2CCOCC2)N(C)C(=O)[C@H](C2CCCC2)N(C)C(=O)C2(CCCC2)NC(=O)[C@@H]2CCCCN2C(=O)[C@H](CCc2ccc(C(F)(F)F)c(Cl)c2)NC(=O)CN(C)C(=O)[C@@H]1Cc1ccc(C(F)(F)F)cc1 [PP0263] ([NMeL]I[Sar][Sar][NPrPhe(4-CF3)][Sar][hPhe(3-Cl-4-CF3)][Pip][Ac5c][NMeGly(cPent)][NMeD]-Morpholide; lactam N-11) | 19.2 | B (a compound having 3 or more and less than 10 is denoted as B) | C (A compound having a KD ratio of 0.1 or more and less than 3 is denoted as C) | – | – | – | –
CCCN1CC(=O)N(C)[C@@H](Cc2ccc(C)cc2)C(=O)N(C)CC(=O)N[C@@H](CCc2ccc(C(F)(F)F)c(Cl)c2)C(=O)N2CCC[C@H]2C(=O)NC2(CCCC2)C(=O)N(C)[C@@H](C2CCCC2)C(=O)N(C)[C@H](C(=O)N2CCOCC2)CC(=O)N(C)[C@@H](CC(C)C)C(=O)N[C@@H]([C@@H](C)CC)C(=O)N(C)CC1=O [PP0020] ([NMeL]I[Sar][NPrGly][NMePhe(4-Me)][Sar][hPhe(3-Cl-4-CF3)]P[Ac5c][NMeGly(cPent)][NMeD]-Morpholide; lactam N-11) | 9.9 | C (A compound having a KD ratio of 0.1 or more and less than 3 is denoted as C) | C (A compound having a KD ratio of 0.1 or more and less than 3 is denoted as C) | – | – | – | –
CCCN1C(=O)[C@@H]2CCN2C(=O)CN(C)C(=O)[C@H]([C@@H](C)CC)NC(=O)[C@H](CC(C)C)N(C)C(=O)C[C@@H](C(=O)N2CCOCC2)N(C)C(=O)[C@H](C2CCCC2)N(C)C(=O)[C@](C)(COC)NC(=O)[C@@H]2CCCN2C(=O)[C@H](CCc2cc(F)c(C(F)(F)F)c(F)c2)NC(=O)CN(C)C(=O)[C@@H]1Cc1ccc(C(F)(F)F)cc1 [PP0798] ([NMeL]I[Sar][Aze][NPrPhe(4-CF3)][Sar][hPhe(3,5-F2-4-CF3)]P[αMeS](Me)[NMeGly(cPent)][NMeD]-Morpholide; lactam N-11) | 61.5 | C (A compound having a KD ratio of 0.1 or more and less than 3 is denoted as C) | B (a compound having 3 or more and less than 10 is denoted as B) | – | – | – | –
CCO[C@@H]1C[C@H]2C(=O)NC3(CC(C)(C)C3)C(=O)N(C)[C@@H](C3CCCC3)C(=O)N(C)[C@H](C(=O)N(C)C)CC(=O)N(C)[C@@H](CC)C(=O)N[C@@H]([C@@H](C)CC)C(=O)N(C)CC(=O)N(C)[C@H]3C/C=C\CCN(C3=O)[C@@H](Cc3ccc(Cl)cc3F)C(=O)N(C)CC(=O)N[C@@H](CCc3cc(F)c(C(F)(F)F)c(F)c3)C(=O)N2C1 [PP2048] | 3.6 | – | – | A (a compound having 10 or more and less than 20 is denoted as A) | B (a compound having 3 or more and less than 10 is denoted as B) | – | –
CCO[C@@H]1C[C@H]2C(=O)NC3(CCC3)C(=O)N(C)[C@@H](C(C)(C)C)C(=O)N(C)[C@H](C(=O)N3CCOCC3)CC(=O)N(C)[C@@H](CC(C)C)C(=O)N[C@@H]([C@@H](C)CC)C(=O)N(C)CC(=O)N(C)[C@H]3CCCCN(C3=O)[C@@H](Cc3ccc(C(F)(F)F)cc3)C(=O)N(C)CC(=O)N[C@@H](CCc3cc(F)c(C(F)(F)F)c(F)c3)C(=O)N2C1 [PP0814] | 19.4 | B (a compound having 3 or more and less than 10 is denoted as B) | B (a compound having 3 or more and less than 10 is denoted as B) | – | – | – | –
CC[C@H](C)[C@@H]1NC(=O)[C@H](CC(C)C)N(C)C(=O)C[C@@H](C(=O)N2CCOCC2)N(C)C(=O)[C@H](C2CCCC2)N(C)C(=O)C2(CCCC2)NC(=O)[C@@H]2CCCN2C(=O)[C@H](CCc2ccc(C(F)(F)F)c(Cl)c2)NC(=O)CN(C)C(=O)[C@H](Cc2ccc(C(F)(F)F)cc2)N(CCC(C)C)C(=O)CN(C)C(=O)CN(C)C1=O [PP0126] ([NMeL]I[Sar][Sar][X38][Sar][hPhe(3-Cl-4-CF3)]P[Ac5c][NMeGly(cPent)][NMeD]-Morpholide; lactam N-11) | 9.3 | C (A compound having a KD ratio of 0.1 or more and less than 3 is denoted as C) | C (A compound having a KD ratio of 0.1 or more and less than 3 is denoted as C) | – | – | – | –
CC[C@H](C)[C@@H]1NC(=O)[C@H](CC)N(C)C(=O)C[C@@H](C(=O)N(C)C)N(C)C(=O)[C@H](C2CCCC2)N(C)C(=O)C2(CCCC2)N(C)C(=O)[C@@H]2CCCN2C(=O)[C@H](CCc2cc(F)c(C(F)(F)F)c(F)c2)NC(=O)CN(C)C(=O)[C@H](Cc2ccc(C(F)(F)F)cc2)N2CC/C=C\C[C@@H](C2=O)N(C)C(=O)CN(C)C1=O [PP1805] | 7 | – | – | – | – | A (a compound having 10 or more and less than 20 is denoted as A) | A (a compound having 10 or more and less than 20 is denoted as A)
CCCN(C)C(=O)[C@@H]1CC(=O)N(C)[C@@H](CC)C(=O)N[C@@H]([C@@H](C)CC)C(=O)N(C)CC(=O)N(C)[C@H]2C/C=C\CCN(C2=O)[C@@H](Cc2ccc(C(F)(F)F)cc2)C(=O)N(C)CC(=O)N[C@@H](CCc2cc(F)c(C(F)(F)F)c(F)c2)C(=O)N2C[C@H](OCC)C[C@H]2C(=O)NC2(CC(C)(C)C2)C(=O)N(C)[C@@H](C2CCCC2)C(=O)N1C [PP1670] | 6.7 | – | – | – | – | A (a compound having 10 or more and less than 20 is denoted as A) | A (a compound having 10 or more and less than 20 is denoted as A)
CCO[C@@H]1C[C@H]2C(=O)NC3(CC(C)(C)C3)C(=O)N(C)[C@@H](C3CCCC3)C(=O)N(C)[C@H](C(=O)N(C)C)CC(=O)N(C)[C@@H](CC(C)C)C(=O)N[C@@H]([C@@H](C)CC)C(=O)N(C)CC(=O)N(C)[C@H]3C/C=C\CCN(C3=O)[C@@H](Cc3ccc4c(c3)CCC4(F)F)C(=O)N(C)CC(=O)N[C@@H](CCc3ccc(C(F)(F)F)c(OC)c3)C(=O)N2C1 [PP2695] | 3.8 | A (a compound having 10 or more and less than 20 is denoted as A) | B (a compound having 3 or more and less than 10 is denoted as B) | – | – | – | –
CCO[C@@H]1C[C@H]2C(=O)NC3(CC(F)(F)C3)C(=O)N(C)[C@@H](C3CCCC3)C(=O)N(C)[C@H](C(=O)N(C)C)CC(=O)N(C)[C@@H](CC(C)C)C(=O)N[C@@H]([C@@H](C)CC)C(=O)N(C)CC(=O)N(C)[C@H]3C/C=C\CCN(C3=O)[C@@H](Cc3ccc(C(F)(F)F)cc3)C(=O)N(C)CC(=O)N[C@@H](CCc3cc(F)c(C(F)(F)F)c(F)c3)C(=O)N2C1 [PP1741] | 2.3 | – | – | – | – | A (a compound having 10 or more and less than 20 is denoted as A) | B (a compound having 3 or more and less than 10 is denoted as B)
CCCN1C(=O)CN(C)C(=O)CN(C)C(=O)[C@H]([C@@H](C)CC)NC(=O)[C@H](CC(C)C)N(C)C(=O)C[C@@H](C(=O)N2CCOCC2)N(CC)C(=O)[C@H](C2CCCC2)N(C)C(=O)C2(CCC2)NC(=O)[C@@H]2CCCN2C(=O)[C@H](CCc2ccc(C(F)(F)F)c(Cl)c2)NC(=O)CN(C)C(=O)[C@@H]1Cc1ccc(C(F)(F)F)cc1 [PP1953] ([NMeL]I[Sar][Sar][NPrPhe(4-CF3)][Sar][hPhe(3-Cl-4-CF3)]P[Ac4c][NMeGly(cPent)][NEtAsp]-Morpholide; lactam N-11) | 8.7 | – | – | B (a compound having 3 or more and less than 10 is denoted as B) | B (a compound having 3 or more and less than 10 is denoted as B) | – | –
CC[C@H](C)[C@@H]1NC(=O)[C@H](CC2CC2)N(C)C(=O)C[C@@H](C(=O)N(C)CC)N(C)C(=O)[C@H](C2CCCC2)N(C)C(=O)C2(CC(C)(C)C2)NC(=O)[C@@H]2C[C@@H](F)CN2C(=O)[C@H](CCc2cc(F)c(C(F)(F)F)c(F)c2)NC(=O)CN(C)C(=O)[C@H](Cc2ccc(C(F)(F)F)cc2)N2CC/C=C\C[C@@H](C2=O)N(C)C(=O)CN(C)C1=O [PP1570] | 2.6 | – | – | – | – | AA (a compound having 20 or more is denoted as AA) | A (a compound having 10 or more and less than 20 is denoted as A)
CCO[C@@H]1C[C@H]2C(=O)NC3(CC(C)(C)C3)C(=O)N(C)[C@@H](C3CCCC3)C(=O)N(C)[C@H](C(=O)N(C)CC)CC(=O)N(C)[C@@H](COC)C(=O)N[C@@H]([C@@H](C)CC)C(=O)N(C)CC(=O)N(C)[C@H]3C/C=C\CCN(C3=O)[C@@H](Cc3ccc(C(F)(F)F)cc3)C(=O)N(C)CC(=O)N[C@@H](CCc3cc(F)c(C(F)(F)F)c(F)c3)C(=O)N2C1 [PP1671] | 3 | – | – | – | – | A (a compound having 10 or more and less than 20 is denoted as A) | A (a compound having 10 or more and less than 20 is denoted as A)
CCCN1C(=O)CN(C)C(=O)CN(C)C(=O)[C@H]([C@@H](C)CC)NC(=O)[C@H](CC(C)C)N(C)C(=O)C[C@@H](C(=O)N2CCOCC2)N(C)C(=O)[C@H](C2CCCC2)N(C)C(=O)C2(CCC2)NC(=O)[C@@H]2C[C@@H](OCC)CN2C(=O)[C@H](CCc2ccc(C(F)(F)F)c(Cl)c2)NC(=O)CN(C)C(=O)[C@@H]1Cc1ccc(C(F)(F)F)cc1 [PP0392] ([NMeL]I[Sar][Sar][NPrPhe(4-CF3)][Sar][hPhe(3-Cl-4-CF3)][Hyp](Et)[Ac4c][NMeGly(cPent)][NMeD]-Morpholide; lactam N-11) | 0.9 | – | – | B (a compound having 3 or more and less than 10 is denoted as B) | C (A compound having a KD ratio of 0.1 or more and less than 3 is denoted as C) | – | –
